Converted amounts (≈) assume the structure as drawn.
Columns and labels:
[1] = tested on: BJEH; assay: Response of tumor cell lines to erastin (dose-response); format: cell-based, human
Method: (§1) Given that oncogenic RAS activates at least four downstream pathways, analysis was performed to identify which downstream effects were necessary for erastin sensitivity. In certain embodiments, the invention provides that erastin inhibits growth and kills genuine tumor cells with RAS mutations. In other embodiments, the invention provides measures of the dose-response of 29 tumor cell lines to erastin, wherein there is at least 50% inhibition of viability in 18 of the cell lines (Table 4). Numerous sarcoma-derived tumor cell lines were sensitive to erastin, consistent with the fact that erastin was discovered in an engineered tumor cell line created from human fibroblasts.

[2] = tested on: HT1080; assay: as above; format: cell-based, human
Method: as §1

[3] = tested on: A673; assay: as above; format: cell-based, human
Method: as §1

[4] = tested on: BJELR; assay: as above; format: cell-based, human
Method: as §1

[5] = tested on: BJ-TERT/LT/ST cells; assay: Alamar Blue viability assay; format: cell-based; details: Homo sapiens; BJ-TERT/LT/ST (lacking HRAS^V12)
Method: (§2) Alamar Blue metabolism: 10% Alamar Blue was added to assay plates, which were then incubated for an additional 16 hours. Red fluorescence, resulting from reduction of Alamar Blue, was detected on a Victor3 platereader (ex: 530, em: 590).
(§3) Table 2. Activity of RAS-selective lethal compound erastin in tumor cell lines. IC50 values (ng/mL) are shown using the Alamar Blue viability assay. BJ engineered tumor cells express TERT, LT, ST, and oncogenic RAS. Isogenic RAS^V12 lacking cells are identical but lack HRAS^V12. BJ-DRD cells are derived from BJ cells and contain TERT, oncogenic RAS, a truncated from of p53 (p53DD) that disrupts the tetramerization of endogenous p53, a CDK4(R24C) mutant resistant to inhibition by p16INK4A and p151NK4B (the major negative regulators of CDK4) and cyclin D1. These latter protein substitute for LT. HCT-116, A549, Calu-1, and MIA PaCa-2 are tumor cells derived from cancers (colon, lung, lung and pancreatic, respectively) known to have activating mutations in RAS.

[6] = tested on: A549 cells; assay: Alamar Blue viability assay; format: cell-based; details: Homo sapiens; A549 (+KRAS)
Method: as §2, §3

[7] = tested on: MIA PaCa-2 cells; assay: Alamar Blue viability assay; format: cell-based; details: Homo sapiens; MIA PaCa-2 (+KRAS)
Method: as §2, §3

[8] = tested on: HCT-116 cells; assay: Alamar Blue viability assay; format: cell-based; details: Homo sapiens; HCT-116 (+KRAS)
Method: as §2, §3

[9] = tested on: Calu-1 cells; assay: Alamar Blue viability assay; format: cell-based; details: Homo sapiens; Calu-1 (+KRAS)
Method: as §2, §3

[10] = tested on: Calu-1 cells; assay: Sensitivity of Calu-1 lung carcinoma cells to erastin; format: cell-based; details: Homo sapiens; Calu-1 lung carcinoma cells with activating KRAS mutation
Method: Erastin was discovered, e.g., in a screen for oncogenic-HRAS-selective lethal compounds. KRAS is more frequently mutated in human cancers than HRAS. Thus, whether erastin is selectively lethal to tumor cells harboring oncogenic KRAS was tested. Calu-1 is a lung carcinoma cell line (Calu-1) with an activating mutation in KRAS. In certain embodiments, Calu-1 cells were sensitive to erastin (IC50=5 μM). Two different lentiviral constructs were used to reduce expression of mutant KRAS.
(Left panel) Calu-1 cells that had been infected with lentiviruses expressing shRNAs targeting GFP (as a control) or KRAS (targeting 19 nucleotides starting at nucleotide 269 or 509) were seeded in 6-well plates, treated with erastin and viability measured using Trypan Blue exclusion on a Beckman Vi-Cell. Error bars represent one SD. (Right panel) Western blot showing KRAS knockdown in Calu-1 cells. Top band=actin, Bottom band=KRAS. Calu-1 cells were infected with nothing (left lane), or lentiviruses containing shRNA constructs targeting GFP or KRAS. For KRAS, the shRNA was designed to match 19 nucleotides starting at the indicated nt.

[11] = tested on: BJ-TERT/LT/ST/RAS^V12 cells; assay: Mitochondrial membrane potential (JC-1 stain); format: cell-based, human; details: after 13 hours of treatment
Method: In certain embodiments, there is loss of mitochondrial membrane potential in >70% of BJ-TERT/LT/ST/RAS^V12 cells after 13 hours of erastin A1 treatment (JC-1 stain), and morphological changes in mitochondria examined by EM, consistent with the notion that erastin induces mitochondrial dysfunction.

With `CCOc1ccccc1-n1c(C(C)N2CCN(C(=O)COc3ccc(Cl)cc3)CC2)nc2ccccc2c1=O` (stereo not shown) [erastin, 2-(1-{4-[2-(4-Chloro-phenoxy)-acetyl]-piperazin-1-yl}-ethyl)-3-(2-ethoxy-phenyl)-3H-quinazolin-4-one] the “Erastin Sensitivity (maximum percent killing, as fraction)” value ([1]; BJ-TERT) was 0.22, the Max % killing ([1]; BJEH, foreskin fibroblast w/TERT) was 22% and the EC50 ([1]; Homo sapiens, BJeH) was 10 µM. The “Erastin Sensitivity (maximum percent killing, as fraction)” value ([2]; HT 1080) was 0.98, the Max % killing ([2]; HT1080, Fibrosarcoma) was 98% and the EC50 ([2]; Homo sapiens, HT-1080, HT1080) was 2 µM. For the same compound, the “Erastin Sensitivity (maximum percent killing, as fraction)” value ([3]; A673) was 0.54, the Max % killing ([3]; A673, Ewing sarcoma) was 54% and the EC50 ([3]; Homo sapiens, A673) was 30 µM. For the same compound, the “Erastin Sensitivity (maximum percent killing, as fraction)” value ([4]; BJ-TERT/LT/ST/RAS^V12) was 1.00, the Max % killing ([4]; BJELR, foreskin fibroblasts w/TERT, LT, ST, RAS) was 100% and the EC50 ([4]; Homo sapiens, BJeLR) was 6 µM. The IC50 [5] was over 20 µg/mL, the IC50 [6] was over 20 µg/mL and the IC50 [7] was 5 µg/mL (≈ 9.14 µM). The IC50 [8] was over 20 µg/mL, the IC50 [9] was 1 µg/mL (≈ 1.83 µM) and the IC50 [10] was 5 µM. For the same compound, the “cells with loss of mitochondrial membrane potential” value [11] was over 70%.

From US20080299076A1, “Compunds and compositions that cause non-apoptotic cell death and uses thereof” (priority 2006, published 2008)
